Experimental data: patent US20250339051A1, “DYNAMIC CHEMICAL-EXCHANGE-SATURATION-TRANSFER (CEST) AGENT ENHANCED MRI USING DIRECT WATER SATURATION” (The Johns Hopkins University, priority 2024, published 2025)
Like-named read-outs stand apart in the source and are kept apart here.

Key:
[1] = tested on: brain tumor patients; test: DS-DGE MRI at 3 T in brain tumor patients with D-Glc infusion; design: species or system human; conditions: in vivo
Source text: Four brain tumor patients were studied (one with an IDH-wildtype glioblastoma, two with a grade 2 IDH-mutated astrocytoma, and one with ALK-mutated non-small-cell lung cancer metastases). The project was approved by the local Institutional Review Board, and each participant provided written informed consent. Participants were asked to fast six hours before the study, but clear liquids were permitted. Before the start of the MRI examination, blood was drawn to verify normal baseline glucose levels (3.9-7.0 mM).
Patients were examined on a 3 T Philips Elition RX system (Philips Healthcare, Best, the Netherlands). Pre- and post-contrast enhanced T1-MPRAGE, FLAIR, DS-DGE, DCE and DSC images were acquired T1-MPRAGE: TR/TE/FA=7.5 ms/3.5 ms/8°, FOV=212×212 mm^2, resolution=1.1×1.1×2.2 mm^3, inversion time=755 ms, acquisition time=1 min 46 s, and FLAIR: TR/TE=11,000/120 ms, FOV=212×212 mm^2 resolution=1.1×1.1×2.2 mm^3, inversion time=2800 ms, acquisition time=3 min 51 s.
DS-DGE images were acquired using ten consecutive 50-ms sinc-gaussian pulses (B1peak=0.5 μTtsat=0.5 s), followed by a whole-brain simultaneous multi-slice EPI readout (multi-band factor 3). A total of 27 slices with FOV of 208×208 mm^2 and a resolution of 2.2×2.2×4.4 mm^3 were acquired using TR/TE/FA=1200 ms/17 ms/52°. 32 frequencies were acquired in 38.2 s at offsets: ±[10 (2×), 5.0, 2.5, 2.0, 1.5, 1.2, 1.0, 0.80, 0.70, 0.60, 0.50, 0.40, 0.30, 0.20, 0.10] ppm. In total 40 dynamics (Z-spectra) were acquired. Approximately five minutes into the scan (after the 8th dynamic), D-Glc was administrated intravenously with a power-injector at a rate of 6.25 g/min using hospital-grade D50 glucose (D50, Hospira Inc., Lake Forest, IL; 35 g of D-Glc in 70 mL of water sterile solution prepared by the Johns Hopkins pharmacy), followed by a saline rinse. Total experiment duration was 25.5 min.
The dynamic DS spectrum signal intensities from each voxel were normalized using the average of the second of two acquisitions at ±10 ppm and then fitted to a Lorentzian line shape using the DL-based single Lorentzian fitting neural network (sLoFNet)^43. The linewidths, defined as FWHM in the DL fitting, were used to generate LW maps (in Hz) for each dynamic. The dynamic linewidth maps were rigid motion corrected using Elastix^48 and visually inspected for remaining motion artefacts.
A baseline was calculated by averaging the linewidth maps obtained before infusion. To remove outliers, baseline LWs greater or less than the average±2SD were discarded. LWbase was then calculated by averaging the remaining baseline LWs. Dynamic ΔLW images were obtained by subtracting LWbase from each linewidth dynamic image, LW(t), followed by normalization with LWbase:
Normalized area-under-the-curve (AUC) was calculated by subtracting LWbase from the average of dynamic LWs obtained from infusion start and through the dynamic scan (LWaverage), followed by normalization with LWbase:
Normalized AUC over the infusion block alone was also calculated. Both fitting and calculations were performed in Python.

[2] = tested on: brain tumor patients; conditions: cited from earlier work
[3] = cited from earlier work
[4] = cited from earlier work; remark: listed apart in the source

With `O=C[C@H](O)[C@@H](O)[C@H](O)[C@H](O)CO` [D-glucose] the “ΔLW (DS linewidth change)” value ([1]; (ventricular) CSF, 35 g D-glucose infusion, 3 T) was ~40%, the “ΔLW (DS linewidth change)” value ([1]; GM/WM, 35 g D-glucose infusion, 3 T) was “approximately 1%” and the “ΔLW (DS linewidth change)” value ([1]; contrast enhanced peri-cavity infiltrative tumor region, recurrent IDH-wildtype glioblastoma patient, during infusion) was “approximately 15%”. The “ΔLW (DS linewidth change)” value ([1]; different tumor types, 35 g D-glucose infusion, 3 T) was 5-20%, the LW change ([1]; white matter, lung cancer brain metastases patient) was “negligible” and the “DGE MRI effect size” value ([2]; contrast enhanced tumor area, LGG and HGG patients, maximum dose 20 g of D-Glc in 100 mL, Bender et al.) was ≤ 0.25%. The “DGE MRI effect size” value ([2]; glioblastoma, 3 T, Xu et al.) was “approximately 1.5%”, the “DGE MRI effect size” value ([2]; low and high grade glioma enhancement areas, dose of 25 g, Mo et al.) was 0.5-1.5% and the “DGE MRI signal increase after D-Glc infusion” value ([2]; metastases, Wu et al.) was ≤ 10%. The “venous plasma blood glucose average increase” value ([3]; D-Glc dose of 25 g, N=11, previous DGE MRI study) was 9.8 mM, the “increase in plasma blood glucose” value ([3]; maximum D-Glc dose of 25 g, previous DGE studies) was “up to 15 mM” and the “hydroxyl proton exchange rate” value ([4]; hydroxyl pool at 0.66 ppm, pH 6.8 (TUMOR EES)) was 1500 Hz. The “hydroxyl proton exchange rate” value ([4]; hydroxyl pool at 0.66 ppm, pH 7.2, 37° C.) was 2900 Hz, the “hydroxyl proton exchange rate” value ([4]; hydroxyl pool at 1.28 ppm, pH 6.8 (TUMOR EES)) was 3100 Hz and the “hydroxyl proton exchange rate” value ([4]; hydroxyl pool at 1.28 ppm, pH 7.2, 37° C.) was 6500 Hz. The “hydroxyl proton exchange rate” value ([4]; hydroxyl pool at 2.08 ppm, pH 6.8 (TUMOR EES)) was 2500 Hz, the “hydroxyl proton exchange rate” value ([4]; hydroxyl pool at 2.08 ppm, pH 7.2, 37° C.) was 5200 Hz and the “hydroxyl proton exchange rate” value ([4]; hydroxyl pool at 2.88 ppm, pH 6.8 (TUMOR EES)) was 6000 Hz. For the same molecule, the “hydroxyl proton exchange rate” value ([4]; hydroxyl pool at 2.88 ppm, pH 7.2, 37° C.) was 14300 Hz.
